One assay concerns peripheral blood mononuclear cells (PBMCs). Briefly: IFNα release assay from peripheral blood mononuclear cells (HTRF). Type of assay: cell-based. As to conditions: Homo sapiens, PBMC, 24 h, freshly isolated human PBMC, IFNα by HTRF, geometric mean when tested more than once. On the procedure: The Examples described were tested for biological activity in functional cellular assays using HEK293 cells stably overexpressing human TLR7 or TLR8. The assays tested for the ability of each Example to stimulate secretion of interferon alpha (IFNα) in human primary blood mono nuclear cells (PBMC).
To determine the ability of each Example to induce the release of interferon alpha (IFNα) from freshly isolated peripheral blood mononuclear cells (PBMCs), a Homogeneous Time-Resolved Fluorescence (HTRF) assay was utilized. Human whole blood was collected from healthy donors via vein puncture in accordance with Pfizer protocols (Protocol No. GOHW RDP-01), approved by the Shulman Institutional Review Board. 50 ml of human venous blood sample from individual donors was heparinized by addition to a conical tube containing 714 units of Heparin Sodium Injection MDV (Fresenius Kabi, cat #70041) followed by gentle inversion of the tube several times. Blood was then transferred to a flask, the conical tube was rinsed with 40 ml of PBS containing 2 mM EDTA (PBS-EDTA), and the rinse was added to the blood flask with gently mixing. 30 ml of the diluted blood was added to 3 separate histopaque tubes (Sigma, cat #A0561), applying directly to the frit. Histopaque tubes were then spun for 15 min at 1000×g in a tabletop centrifuge. Following density separation, excess upper phase of plasma was aspirated to within ˜5 ml above the interphase and remaining plasma along with the cloudy interphase containing PBMCs were gently decanted into a new conical tube. 15 ml of PBS-EDTA was added to the histopaque tube and swirled gently to remove remaining PBMCs that adhered to the tube wall and this wash was added to the existing PBMCs in the tube. The volume of the tube was brought to 40 ml with PBS-EDTA and tubes were spun at 250×g for 12 minutes at room temperature. After aspiration of the supernatant, the pellet was gently resuspended with 10 ml of PBS-EDTA and centrifuged again at 250×g for 12 minutes. The resulting supernatant was decanted, and the pellet was resuspended in 20 ml of ACK lysing buffer (ThermoFisher, cat #A10492-01) followed by incubation at room temperature for 5 minutes. The volume of each tube was brought to 50 ml with the addition of PBS-EDTA and tubes were spun at 177×g for 12 minutes at room temperature. The PBMC pellet was again resuspended in 10 ml of PBS without EDTA and tubes were spun for a final time at 177×g for 10 minutes. The supernatant was decanted and PBMCs were resuspended in Assay Media (RPMI base media with 10% FBS heat inactivated, 2 mM Glutamax and Penicillin/Streptomycin).
Each Example was prepared for the assay using 11-point half log serial dilutions from a 2.5 mM DMSO stock solution and 400 nl was spotted into 384 well Viewplate (Perkin Elmer, cat #6007480). Positive and negative controls (previously described) were also spotted within the assay plate and were used to determine percent effect during the analysis process. PBMCs were counted and plated at a density of 100,000 cells/[…]/well; plates were covered with a prewet microclime lid to prevent evaporation and incubated for 24 hrs at 37° C. in a 5% CO2 atmosphere. At the end of the incubation, the microclime lid was removed and the plates were spun at 1000 rpm for 5 minutes. 16 μl of conditioned media from the cell plate was transferred into a separate 384 well low-volume plate (Greiner One, 784080). IFNα levels were quantitated using an HTRF® kit (Cisbio, cat #62HIFNAPEG) according to the manufacturer's instructions. The kit supplies two different specific antibodies, one labelled with D2 (acceptor) and the other labelled with cryptate (donor), and detection buffer. The antibody stocks were diluted […] in detection buffer. For one 384 well plate, 62.5 μl of D2 antibody stock and 62.5 μl of cryptate antibody stock was added to 2.375 ml of detection buffer and mixed well. […]
Background: TR-FRET usually uses a lanthanide donor and a delayed reading to cut background.
By EC50 is commonly meant the midpoint of the concentration-response curve. Higher therefore signals lower potency in that assay. As for `CCOCc1nc2c(N)nc(C)c(C)c2n1CC(CO)CO` [Example 1, 2-((4-amino-2-(ethoxymethyl)-6,7-dimethyl-1H-imidazo[4,5-c]pyridin-1-yl)methyl)propane-1,3-diol], the EC50 was determined as 99 nM.
Molecule `CCOCc1nc2c(N)nc(C)c(C)c2n1CC(C)(CO)CO` [Example 2, 2-((4-amino-2-(ethoxymethyl)-6,7-dimethyl-1H-imidazo[4,5-c]pyridin-1-yl)methyl)-2-methylpropane-1,3-diol] came in with an EC50 of 19 nM.
On the same count and under the same terms, the same measure for `CCOCc1nc2c(N)nc3ccccc3c2n1CC(C)(CO)CO` [Example 3, 2-((4-amino-2-(ethoxymethyl)-1H-imidazo[4,5-c]quinolin-1-yl)methyl)-2-methylpropane-1,3-diol]: 7 nM; for `Cc1nc(N)c2nc(CC(F)(F)F)n(CC(C)(CO)CO)c2c1C` [Example 8, 2-((4-amino-6,7-dimethyl-2-(2,2,2-trifluoroethyl)-1H-imidazo[4,5-c]pyridin-1-yl)methyl)-2-methylpropane-1,3-diol]: 48 nM; for `CCOCc1nc2c(N)nc(C)c(C)c2n1CC(CC)(CO)CO` [Example 9, 2-((4-amino-2-(ethoxymethyl)-6,7-dimethyl-1H-imidazo[4,5-c]pyridin-1-yl)methyl)-2-ethylpropane-1,3-diol]: 2 nM.
On the same count and under the same terms, the same measure for `CCCCc1nc2c(N)nc3ccccc3c2n1CC(C)(CO)CO` [Example 10, 2-((4-amino-2-butyl-1H-imidazo[4,5-c]quinolin-1-yl)methyl)-2-methylpropane-1,3-diol]: 1 nM; for `CCCCc1nc2c(N)nc3c(c2n1CC(C)(CO)CO)CCCC3` [Example 13, 2-((4-amino-2-butyl-6,7,8,9-tetrahydro-1H-imidazo[4,5-c]quinolin-1-yl)methyl)-2-methylpropane-1,3-diol]: 0.4 nM.
On the same count and under the same terms, the same measure for `CCCCc1nc2c(N)nc3c(c2n1CC(C)(CO)CO)CCC3` [Example 14, 2-((4-amino-2-butyl-7,8-dihydrocyclopenta[b]imidazo[4,5-d]pyridin-1(6H)-yl)methyl)-2-methylpropane-1,3-diol]: 7 nM.
`CCc1nc2c(N)nc3ccccc3c2n1CC(C)(CO)CO` [Example 15, 2-((4-amino-2-ethyl-1H-imidazo[4,5-c]quinolin-1-yl)methyl)-2-methylpropane-1,3-diol] had an EC50 of 12 nM. Compared with the last molecule, the EC50 is about 1.7-fold higher.
Still for that read-out and setting: the same measure for `CCCc1nc2c(N)nc3ccccc3c2n1CC(C)(CO)CO` [Example 16, 2-((4-amino-2-propyl-1H-imidazo[4,5-c]quinolin-1-yl)methyl)-2-methylpropane-1,3-diol]: 11 nM.

Still in this assay, the particulars now being: freshly isolated human PBMC, 24 hrs, IFNα by HTRF; geometric mean when tested more than once.
In turn, `CCOCc1nc2c(N)nc(C)c(C)c2n1CC(C)(CO)COC` (single isomer, unassigned) [Example 6, 3-(4-amino-2-(ethoxymethyl)-6,7-dimethyl-1H-imidazo[4,5-c]pyridin-1-yl)-2-(methoxymethyl)-2-methylpropan-1-ol] displayed an EC50 of 22 nM. This lies in the double-digit nanomolar range.
The same measure, in the same setting: to `CCOCc1nc2c(N)nc(C)c(C)c2n1CC(C)(CO)COC` (single isomer, unassigned) [Example 7, 3-(4-amino-2-(ethoxymethyl)-6,7-dimethyl-1H-imidazo[4,5-c]pyridin-1-yl)-2-(methoxymethyl)-2-methylpropan-1-ol] belongs 198 nM.

Values taken from patent US11976064B2, “Toll-like receptor agonists” (Pfizer Inc., priority 2019, dated 2024).
